This is an account of results in patent publication US7148191B2, “Antigenic composition” (Intercell AG, priority 2000, dated 2006).

For experiment [1], the system named is human monocyte-derived DCs. As to the kind of experiment: In vitro phenotypic maturation of DCs, surface molecules by flow cytometry. The experiment is classed as cell-based. The settings on record: 48 hours; for phenotypic maturation of DCs (overall): each 10 μg/ml, LPS 1 μg/ml as control.
Experiment [2] deals with peptide-specific IFN-γ-producing T cells in peripheral blood. As to the kind of experiment: IFN-γ ELISPOT of peripheral blood leukocytes after injection of ovalbumin (OVA) mixtures. The following applies: Example 12, FIG. 12B; PBLs re-stimulated with OVA257-264-peptide; selected time points after one single injection. The experiment is classed as in vivo, mice (C57B1/6). From the text: To further examine whether the immune response induced by one single injection of OVA protein with oligo-dIC/pR is systemic, the rest of the mice (4 mice/group) was investigated at selected time points after injection for the presence of peptide-specific IFN-γ-producing T cells in peripheral blood using an IFN-γ ELISPOT assay. Results are expressed as the number of spots/1×10^6 cells±SD of duplicates.

A further experiment relates to OVA-specific T cells. The experiment is described as follows: IFN-γ ELISPOT of draining lymph node cells after injection of ovalbumin (OVA) mixtures. The experiment is classed as in vivo, mice (C57B1/6). The following applies: Example 12, FIG. 12A; OVA 50 μg, oligo-dIC26-mer 5 nmol, pR 100 μg/mouse; footpad; day 4 LN. The procedure:
Experimental Groups (4 Mice Per Group) • 1. OVA257-264-peptide+pIC+pR • 2. OVA257-264-peptide+pIC • 3. OVA257-264-peptide+pR On day 0 mice were injected into each hind footpad with a total volume of 100 μl (50 μl per footpad) containing the above mentioned compounds. Animals were sacrificed 4 days after injection and popliteal lymph nodes were harvested. Single cell suspensions were prepared by mincing lymph nodes through a 70 μm cell strainer. Thereafter, cells were washed twice with DMEM medium (Life Technologies) containing 5% fetal calf serum (FCS, SIGMA Chemicals). Cells were adjusted to 10^7 cells/ml in DMEM/5% FCS. […] This method is a widely used procedure for the quantification of antigen-specific T cells. […] Spots were counted using a Biosys reader (Biosys, Germany). […] The Results are expressed as the number of spots/1×10^6 unseparated cells±SD of triplicates. […]
Experimental Groups (4 Mice Per Group) • 1. […] Results are expressed as the number of spots/1×10^6 cells±SD of triplicates. […] Importantly, the IFN-γ production was detected not only upon the re-stimulation with the whole OVA protein but also with both, MHC class I (OVA257-264)- and II (OVA265-280)-restricted OVA-derived epitopes (FIG. 9).
Experimental Groups (8 Mice Per Group) • 1. […] Results are expressed as the number of spots/1×10^6 cells±SD of triplicates.

Experiment [3] has as its system OVA257-264-peptide-specific IFN-γ-producing T cells. The experiment is described as follows: IFN-γ ELISPOT of draining lymph node cells after injection of OVA257-264-peptide mixtures. The experiment is classed as in vivo, mice (C57B1/6). The settings on record: Example 11; day 4; peptide 300 μg, oligo-dIC26-mer 5 nmol, pR 100 μg/mouse; footpad.
Description: Experimental Groups (4 Mice Per Group) • 1. OVA257-264-peptide+pIC+pR • 2. OVA257-264-peptide+pIC • 3. OVA257-264-peptide+pR On day 0 mice were injected into each hind footpad with a total volume of 100 μl (50 μl per footpad) containing the above mentioned compounds. Animals were sacrificed 4 days after injection and popliteal lymph nodes were harvested. Single cell suspensions were prepared by mincing lymph nodes through a 70 μm cell strainer. Thereafter, cells were washed twice with DMEM medium (Life Technologies) containing 5% fetal calf serum (FCS, SIGMA Chemicals). Cells were adjusted to 10^7 cells/ml in DMEM/5% FCS. IFN-γ ELISPOT assays were carried out in triplicates as described (Miyahira et al., 1995). […] Spots were counted using a Biosys reader (Biosys, Germany). […] The Results are expressed as the number of spots/1×10^6 unseparated cells±SD of triplicates.
The subject of experiment [4] is peptide-specific IFN-γ-producing T cells in spleen or peripheral blood. As to the kind of experiment: IFN-γ ELISPOT of peripheral blood leukocytes or spleen cells (systemic response) after injection of OVA257-264-peptide mixtures. The following applies: Example 11, FIG. 11; selected time points after one single injection. The experiment is classed as in vivo, mice (C57B1/6). As to the method: To investigate whether the immune response induced by one single injection of peptide with pIC/pR is systemic, the rest of the animals (four per group) was bled from the tail vein at selected time points after injection, peripheral blood leukocytes (PBLs) were isolated, re-stimulated either with the relevant peptide, pIC, pR, ConA (positive control) or medium alone (background) and the number of IFN-γ-secreting T lymphocytes was determined using an ELISPOT assay. Assays were carried out in duplicates. Each spot represents a single IFN-γ-producing T cell. Spots were counted using a Biosys reader (Biosys, Germany). Number of background spots was subtracted from all samples. Results are expressed as the number of spots/1×10^6 cells±SD of duplicates.
To examine whether the immune response induced by one single injection of peptide with oligo-dIC/pR is systemic, the rest of the mice (4 mice/group) was investigated at selected time points after injection for the presence of peptide-specific IFN-γ-producing T cells in spleen or peripheral blood using an IFN-γ ELISPOT assay. Results are expressed as the number of spots/1×10^6 cells±SD of duplicates.

Setting [5] is: Example 10, FIG. 10, 10 μg/ml, day 6-cultured DCs, vs untreated DCs.

Polyinosinic-polycytidylic acid [pIC]: in experiment [1] (setting [5]), the “expression of CD1a molecules” value was “down-regulation”; the “expression of CD86 and the maturation marker CD83” value is given as “de-novo expression”; the “expression of HLA-DR, -DQ and HLA-I molecules, CD40, CD54, CD80” value is listed as “up-regulation”. Also, in experiment [1] (Example 10, FIG. 10), the “phenotypic maturation of DCs (overall)” value was “comparable to that induced by LPS”. The “expression of CD11a, CD11c, CD13, CD25, CD29 and CD50 antigens” value in experiment [1] (Example 10, 10 μg/ml, day 6-cultured DCs) was “slight up-regulation”.
Turning to Poly-L-arginine [pR], the “phenotypic maturation of DCs (overall)” value in experiment [1] (Example 10, FIG. 10) is recorded as “None of the above described phenotypic changes could be observed”.
On to “OVA: Ovalbumin from chicken egg, grade V, SIGMA Chemicals, A-5503”, for which the “systemic response (peptide-specific IFN-γ-producing T cells in peripheral blood)” value in experiment [2] is “could not be observed”. In the experiment with OVA-specific T cells, the “local antigen-specific T cell response in lymph node cells” value is given as “could not be observed”.
On to “OVA257–264-Peptide (SIINFEKL) [OVA257-264-peptide]”, for which, in experiment [3], the “local antigen-specific response in draining lymph node cells” value was “could not be observed”. Besides, the “systemic response (peptide-specific IFN-γ-producing T cells in spleen or peripheral blood)” value in experiment [4] is reported as “could not be observed”.
